Laboratory results: patent US20100286215A1, “BIS-AROMATIC COMPOUNDS USEFUL IN THE TREATMENT OF INFLAMMATION” (BIS-AROMATIC COMPOUNDS USEFUL IN THE TREATMENT OF …, priority 2007, published 2010)
pIC50: −log10 of the molar value.

What follows are compounds tested against T1, Recombinant human LTC4 synthase (Homo sapiens, UniProt Q16873) (assay: LTC4 synthase assay (conversion of LTA4 methyl ester to LTC4 methyl ester, HPLC)). Conditions: not given.
T1 construct: made in house; host or cells: Pichia pastoris ('Piccia pastoralis' [sic])
T1 sequence (Q16873 1-150): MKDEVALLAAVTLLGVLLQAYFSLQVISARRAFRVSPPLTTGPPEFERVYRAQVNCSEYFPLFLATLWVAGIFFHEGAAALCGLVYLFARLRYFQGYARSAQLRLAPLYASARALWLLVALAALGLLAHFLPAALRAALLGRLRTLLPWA
Type: biochemical
Procedure: In the assay LTC4 synthase catalyses the reaction where the substrate LTA4 methyl ester is converted to LTC4 methyl ester. Recombinant human LTC4 synthase is expressed in Piccia pastoralis and the purified enzyme is dissolved in 25 mM Tris-buffer pH 7.8 and stored at −20° C. The assay is performed in phosphate buffered saline (PBS) pH 7.4, supplemented with 5 mM glutathione (GSH). The reaction is terminated by addition of acetonitrile/MeOH/acetic acid (50/50/1). The assay is performed at rt in 96-well plates. Analysis of the formed LTC4 methyl ester is performed with reversed phase HPLC (Waters 2795 utilizing an Onyx Monolithic C18 column). The mobile phase consists of acetonitrile/MeOH/H2O (32.5/30/37.5) with 1% acetic acid pH adjusted with NH3 to pH 5.6, and absorbance measured at 280 nm with a Waters 2487 UV-detector.
The following is added chronologically to each well: • 1. 50 μl assay buffer, PBS with 5 mM GSH. • 2. 0.5 μl inhibitor in DMSO. • 3. 2 μl LTC4 synthase in PBS. The total protein concentration in this solution is 0.025 mg/ml. Incubation of the plate at room temperature for 10 minutes. • 4. 0.5 μl LTA4 methyl ester. Incubation of the plate at rt for 1 min. • 5. 50 μl stop solution. 80 μl of the incubation mixture is analysed with HPLC.

Row | pIC50 | Compound
1 | 7.14 | O=C(Nc1ccc(C(=O)c2ccc(NC(=O)c3ccc(C(F)(F)F)cc3F)c(C(=O)O)c2)cc1C(=O)O)c1ccc(C(F)(F)F)cc1 [Example 8, 2-(2-fluoro-4-(trifluoromethyl)benzamido)-5-(4-(4-(tri-fluoromethyl)benzamido)-3-carboxyphenylcarbonyl)-benzoic acid]
2 | 6.59 | CC(C)Oc1ccc(Nc2ccc(C(=O)c3ccc(Nc4ccc(OC(C)C)cc4)c(C(=O)O)c3)cc2C(=O)O)cc1 [Example 2, 2-(4-isopropoxyphenylamino)-5-(4-(4-isopropoxyphenylamino)-3-carboxyphenylcarbonyl)benzoic acid]

Row | Compound | pIC50
3 | O=C(c1ccc(NS(=O)(=O)c2ccc([N+](=O)[O-])cc2)c(C(=O)O)c1)c1ccc(NS(=O)(=O)c2ccc([N+](=O)[O-])cc2)c(C(=O)O)c1 [Example 4, 2-((4-nitrophenyl)sulfonylamino)-5-(3-carboxy-4-(((4-nitrophenyl)-sulfonyl)amino)benzoyl)benzoic acid] | 6.72

Same assay, conditions: inhibitor concentration 10 μM

Row | Compound | Percantage Inhibition at 10 μM (unless specified otherwise) [%]
4 | CCCCOc1ccc(S(=O)(=O)Nc2ccc(C(=O)c3ccc(NS(=O)(=O)c4ccc(OCCCC)cc4)c(C(=O)O)c3)cc2C(=O)O)cc1 [Example 7] | 97

Same assay, conditions: inhibitor concentration 10 μM; read-out: Percantage Inhibition at 10 μM (unless specified otherwise)

Row | Compound | inhibition at 10 µM [%]
5 | O=C(c1ccc(NS(=O)(=O)c2ccc([N+](=O)[O-])cc2)c(C(=O)O)c1)c1ccc(NS(=O)(=O)c2ccc([N+](=O)[O-])cc2)c(C(=O)O)c1 [Example 4, 2-((4-nitrophenyl)sulfonylamino)-5-(3-carboxy-4-(((4-nitrophenyl)-sulfonyl)amino)benzoyl)benzoic acid] | 100
6 | CN(c1ccc(Cl)cc1)c1ccc(C(=O)c2ccc(Oc3cccc(C(F)(F)F)c3F)c(C(=O)O)c2)cc1 [6:7, 5-{4-[(4-Chloro-phenyl)-methyl-amino]-benzoyl}-2-(2-fluoro-3-trifluoromethyl-phenoxy)-benzoic acid] | 96
7 | O=C(c1ccc(Nc2ccc(Cl)cc2)cc1)c1ccc(Nc2ccc(F)c(F)c2)c(C(=O)O)c1 [Example 16, 5-(4-(4-chlorophenylamino)-benzoyl)-2-(3,4-difluoro-phenylamino)benzoic acid] | 94
8 | CCCCc1ccc(C(=O)Nc2ccc(C(=O)c3ccc(NC(=O)c4ccc(CCCC)cc4)c(C(=O)O)c3)cc2C(=O)O)cc1 [Example 3, 2-(4-butylbenzamido)-5-(4-(4-butylbenzamido)-3-carboxy-phenylcarbonyl)benzoic acid] | 98
9 | O=C(c1ccc(Oc2ccc(C(F)(F)F)cc2)cc1)c1ccc(Oc2ccc(F)c(F)c2)c(C(=O)O)c1 [8:5, 2-(3,4-Difluoro-phenoxy)-5-[4-(4-trifluoromethyl-phenoxy)-benzoyl]-benzoic acid] | 96
10 | CN(c1ccc(Cl)cc1)c1ccc(C(=O)c2ccc(Oc3cccc(Cl)c3Cl)c(C(=O)O)c2)cc1 [6:9, 5-{4-[(4-Chloro-phenyl)-methyl-amino]-benzoyl}-2-(2,3-dichloro-phenoxy)-benzoic acid] | 66
11 | COc1ccc(Cl)cc1S(=O)(=O)Nc1ccc(C(=O)c2ccc(NC(=O)c3cccc(Cl)c3)cc2)cc1C(=O)O [7:3, 5-[4-(3-Chloro-benzoylamino)-benzoyl]-2-(5-chloro-2-methoxy-benzenesulfonylamino)-benzoic acid] | 96
12 | O=C(c1ccc(NC(=O)c2ccc(Cl)cc2Cl)c(C(=O)O)c1)c1ccc(NC(=O)c2ccc(Cl)cc2Cl)c(C(=O)O)c1 [Example 10, 2-(2,4-dichlorobenzamido)-5-(4-(2,4-dichlorobenzamido)-3-carboxyphenylcarbonyl)-benzoic acid] | 82
13 | O=C(c1ccc(NC(=O)c2ccccc2Cl)cc1)c1ccc(Nc2ccc(F)c(F)c2)c(C(=O)O)c1 [5:5, 5-[4-(2-Chloro-benzoylamino)-benzoyl]-2-(3,4-difluoro-phenylamino)-benzoic acid] | 97
14 | O=C(Nc1ccc(C(=O)c2ccc(NC(=O)c3cccc(F)c3F)c(C(=O)O)c2)cc1)c1cccc(Cl)c1 [7:4, 5-[4-(3-Chloro-benzoylamino)-benzoyl]-2-(2,3-difluoro-benzoylamino)-benzoic acid] | 100
15 | O=C(Nc1ccc(C(=O)c2ccc(NC(=O)c3cccc(Cl)c3)c(C(=O)O)c2)cc1)c1cccc(Cl)c1 [7:1, 2-(3-Chloro-benzoylamino)-5-[4-(3-chloro-benzoylamino)-benzoyl]-benzoic acid] | 97
16 | O=C(Nc1ccc(C(=O)c2ccc(NC(=O)c3ccc(C(F)(F)F)cc3F)c(C(=O)O)c2)cc1C(=O)O)c1ccc(C(F)(F)F)cc1 [Example 8, 2-(2-fluoro-4-(trifluoromethyl)benzamido)-5-(4-(4-(tri-fluoromethyl)benzamido)-3-carboxyphenylcarbonyl)-benzoic acid] | 100
17 | CN(c1ccc(Cl)cc1)c1ccc(C(=O)c2ccc(Nc3ccccc3C(F)(F)F)c(C(=O)O)c2)cc1 [9:2, 5-{4-[(4-Chloro-phenyl)-methyl-amino]-benzoyl}-2-(2-trifluoromethyl-phenylamino)-benzoic acid] | 55
18 | CN(c1ccc(Cl)cc1)c1ccc(C(=O)c2ccc(Oc3cccc4c3CCCC4)c(C(=O)O)c2)cc1 [6:10, 5-{4-[(4-Chloro-phenyl)-methyl-amino]-benzoyl}-2-(5,6,7,8-tetrahydro-naphthalen-1-yloxy)-benzoic acid] | 88

Second part, the compound after the results:

Row | inhibition at 10 µM [%] | Compound
19 | 82 | CN(c1ccc(Cl)cc1)c1ccc(C(=O)c2ccc(N(C)c3ccc(Cl)cc3)c(C(=O)O)c2)cc1C(=O)O [11:2, 5-{3-Carboxy-4-[(4-chlorophenyl)-methyl-amino]benzoyl}-2-[(4-chloro-phenyl)-methyl-amino]benzoic acid]
20 | 96 | O=C(c1ccc(NS(=O)(=O)c2ccc(Cl)cc2)cc1)c1ccc(NC(=O)c2cc(Cl)ccc2O)c(C(=O)O)c1 [7:8, 5-[4-(4-Chloro-benzenesulfonylamino)-benzoyl]-2-(5-chloro-2-hydroxy-benzoylamino)-benzoic acid]
21 | 93 | O=C(CC1CCCC1)Nc1ccc(C(=O)c2ccc(NC(=O)c3ccc(Cl)cc3Cl)c(C(=O)O)c2)cc1 [14:1, 5-[4-(2-Cyclopentyl-acetylamino)-benzoyl]-2-(2,4-dichloro-benzoylamino)-benzoic acid]
22 | 98 | O=C(c1ccc(NC(=O)c2cc(Cl)cnc2Cl)cc1)c1ccc(Nc2ccc(F)c(F)c2)c(C(=O)O)c1 [5:12, 5-{4-[(2,5-Dichloro-pyridine-3-carbonyl)-amino]-benzoyl}-2-(3,4-difluoro-phenylamino)-benzoic acid]
23 | 99 | O=C(c1ccc(NS(=O)(=O)c2ccc(Cl)cc2)cc1)c1ccc(NC(=O)c2cccc(Cl)c2Cl)c(C(=O)O)c1 [7:10, 5-[4-(4-Chloro-benzenesulfonylamino)-benzoyl]-2-(2,3-dichloro-benzoylamino)-benzoic acid]
24 | 99 | CC(C)Oc1ccc(Nc2ccc(C(=O)c3ccc(Nc4ccc(OC(C)C)cc4)c(C(=O)O)c3)cc2C(=O)O)cc1 [Example 2, 2-(4-isopropoxyphenylamino)-5-(4-(4-isopropoxyphenylamino)-3-carboxyphenylcarbonyl)benzoic acid]
25 | 62 | CN(c1ccc(Cl)cc1)c1ccc(C(=O)c2ccc(Oc3ccc(Cl)cc3)c(C(=O)O)c2)cc1 [6:1, 2-(4-Chloro-phenoxy)-5-{4-[(4-chloro-phenyl)-methyl-amino]-benzoyl}-benzoic acid]
26 | 84 | CN(c1ccc(Cl)cc1)c1ccc(C(=O)c2ccc(Oc3cccc(Cl)c3)c(-c3nnn[nH]3)c2)cc1 [10:2, [4-(3-Chloro-phenoxy)-3-(1H-tetrazol-5-yl)-phenyl]-{4-[(4-chloro-phenyl)-methyl-amino]-phenyl}-methanone]
